Three molecules from ChEMBL document CHEMBL1134758, “New probes of the agonist binding site of metabotropic glutamate receptors” (Bioorg Med Chem Lett, 2001) can be followed below.

The target in assay [1] is Metabotropic glutamate receptor 2 (Rattus norvegicus, UniProt P31421). The assay is described as follows: Agonist activity in rat at mGlu2 receptor expressed in HEK293 cells. In kind it is functional, cell-based.
Assay [2] concerns the target Metabotropic glutamate receptor 1 (Rattus norvegicus) (UniProt P23385). The assay is described as follows: Maximal effect obtained with 1 mM of the drug expressed as percent of maxiaml effect of glutamate in rat at mGlu1a receptor expressed in HEK293 cells. The class given is functional, cell-based.
Assay [3] addresses T1, Metabotropic glutamate receptor 8 (Rattus norvegicus, UniProt P70579). The assay is described as follows: Agonist activity in rat at mGlu8a receptor expressed in HEK293 cells. The class given is functional, cell-based.
Assay [4] deals with Metabotropic glutamate receptor 8 (Rattus norvegicus) (UniProt P70579). The assay is described as follows: Maximal effect obtained with 1 mM of the drug expressed as percent of maxiaml effect of glutamate in rat at mGlu8a receptor expressed in HEK293 cells. In kind it is functional, cell-based.
The target of assay [5] is Metabotropic glutamate receptor 1 (Rattus norvegicus, UniProt P23385). The assay is described as follows: Agonist activity in rat at mGlu1a receptor expressed in HEK293 cells. In kind it is functional, cell-based.
In assay [6] the target is Metabotropic glutamate receptor 2 (Rattus norvegicus) (UniProt P31421). The assay is described as follows: (§1) Maximal effect obtained with 1 mM of the drug expressed as percent of maxiaml effect of glutamate in rat at mGlu2 receptor expressed in HEK293 cells. In kind it is functional, cell-based.
Assay [7] concerns the target T1, Metabotropic glutamate receptor 8. The assay is described as follows: Agonist activity in rat at Metabotropic glutamate receptor 8 expressed in HEK293 cells. The class given is functional, cell-based.
Assay [8] deals with Metabotropic glutamate receptor 2 (Rattus norvegicus) (UniProt P31421). The assay is described as §1. In kind it is cell-based.

pEC50: −log10 of the molar value.

T1 sequence (P70579 whole entry): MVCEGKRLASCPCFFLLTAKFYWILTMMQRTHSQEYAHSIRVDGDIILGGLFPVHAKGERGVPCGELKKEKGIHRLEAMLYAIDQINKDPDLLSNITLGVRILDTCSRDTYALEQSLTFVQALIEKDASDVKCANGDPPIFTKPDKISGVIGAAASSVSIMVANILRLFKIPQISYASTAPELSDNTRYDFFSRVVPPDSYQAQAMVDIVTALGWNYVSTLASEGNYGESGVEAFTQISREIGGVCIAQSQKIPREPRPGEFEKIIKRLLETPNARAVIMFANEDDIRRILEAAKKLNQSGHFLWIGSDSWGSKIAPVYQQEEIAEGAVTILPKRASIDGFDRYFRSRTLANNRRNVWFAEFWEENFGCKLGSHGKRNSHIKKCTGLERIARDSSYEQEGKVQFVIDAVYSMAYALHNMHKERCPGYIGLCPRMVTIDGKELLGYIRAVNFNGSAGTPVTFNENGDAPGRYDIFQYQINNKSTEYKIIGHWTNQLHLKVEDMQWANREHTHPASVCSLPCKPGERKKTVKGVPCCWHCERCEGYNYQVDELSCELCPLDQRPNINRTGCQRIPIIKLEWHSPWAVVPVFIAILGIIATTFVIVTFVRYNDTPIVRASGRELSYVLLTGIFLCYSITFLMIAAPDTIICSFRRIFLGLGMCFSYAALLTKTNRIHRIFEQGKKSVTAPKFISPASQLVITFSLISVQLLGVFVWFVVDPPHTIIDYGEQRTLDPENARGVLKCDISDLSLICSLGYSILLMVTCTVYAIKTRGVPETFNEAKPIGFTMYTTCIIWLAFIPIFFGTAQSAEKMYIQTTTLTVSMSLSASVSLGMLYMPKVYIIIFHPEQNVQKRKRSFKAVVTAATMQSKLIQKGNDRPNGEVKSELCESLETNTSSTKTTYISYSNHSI
Metabotropic glutamate receptor 2 (Rattus norvegicus), sequence (P31421 19-872 limits assumed): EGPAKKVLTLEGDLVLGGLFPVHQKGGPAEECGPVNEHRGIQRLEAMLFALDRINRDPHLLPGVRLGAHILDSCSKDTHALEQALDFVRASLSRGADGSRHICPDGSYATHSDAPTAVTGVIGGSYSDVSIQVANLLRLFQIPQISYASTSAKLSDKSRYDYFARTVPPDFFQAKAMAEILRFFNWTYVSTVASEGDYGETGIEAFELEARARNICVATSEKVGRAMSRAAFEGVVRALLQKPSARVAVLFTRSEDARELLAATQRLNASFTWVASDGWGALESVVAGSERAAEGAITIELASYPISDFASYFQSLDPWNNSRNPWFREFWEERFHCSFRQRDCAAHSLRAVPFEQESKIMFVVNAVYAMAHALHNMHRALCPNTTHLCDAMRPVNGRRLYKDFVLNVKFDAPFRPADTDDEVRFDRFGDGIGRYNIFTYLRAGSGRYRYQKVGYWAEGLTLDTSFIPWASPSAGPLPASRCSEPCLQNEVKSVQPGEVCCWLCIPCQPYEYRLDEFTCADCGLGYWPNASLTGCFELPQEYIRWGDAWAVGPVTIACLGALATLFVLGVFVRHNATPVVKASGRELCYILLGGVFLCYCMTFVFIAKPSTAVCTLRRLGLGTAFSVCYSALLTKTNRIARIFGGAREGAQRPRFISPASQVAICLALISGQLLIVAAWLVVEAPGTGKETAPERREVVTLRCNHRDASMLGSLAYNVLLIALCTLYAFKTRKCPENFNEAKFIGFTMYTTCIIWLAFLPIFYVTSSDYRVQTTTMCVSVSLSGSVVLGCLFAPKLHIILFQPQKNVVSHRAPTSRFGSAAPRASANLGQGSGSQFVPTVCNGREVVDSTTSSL
Metabotropic glutamate receptor 1, sequence (P23385 whole entry): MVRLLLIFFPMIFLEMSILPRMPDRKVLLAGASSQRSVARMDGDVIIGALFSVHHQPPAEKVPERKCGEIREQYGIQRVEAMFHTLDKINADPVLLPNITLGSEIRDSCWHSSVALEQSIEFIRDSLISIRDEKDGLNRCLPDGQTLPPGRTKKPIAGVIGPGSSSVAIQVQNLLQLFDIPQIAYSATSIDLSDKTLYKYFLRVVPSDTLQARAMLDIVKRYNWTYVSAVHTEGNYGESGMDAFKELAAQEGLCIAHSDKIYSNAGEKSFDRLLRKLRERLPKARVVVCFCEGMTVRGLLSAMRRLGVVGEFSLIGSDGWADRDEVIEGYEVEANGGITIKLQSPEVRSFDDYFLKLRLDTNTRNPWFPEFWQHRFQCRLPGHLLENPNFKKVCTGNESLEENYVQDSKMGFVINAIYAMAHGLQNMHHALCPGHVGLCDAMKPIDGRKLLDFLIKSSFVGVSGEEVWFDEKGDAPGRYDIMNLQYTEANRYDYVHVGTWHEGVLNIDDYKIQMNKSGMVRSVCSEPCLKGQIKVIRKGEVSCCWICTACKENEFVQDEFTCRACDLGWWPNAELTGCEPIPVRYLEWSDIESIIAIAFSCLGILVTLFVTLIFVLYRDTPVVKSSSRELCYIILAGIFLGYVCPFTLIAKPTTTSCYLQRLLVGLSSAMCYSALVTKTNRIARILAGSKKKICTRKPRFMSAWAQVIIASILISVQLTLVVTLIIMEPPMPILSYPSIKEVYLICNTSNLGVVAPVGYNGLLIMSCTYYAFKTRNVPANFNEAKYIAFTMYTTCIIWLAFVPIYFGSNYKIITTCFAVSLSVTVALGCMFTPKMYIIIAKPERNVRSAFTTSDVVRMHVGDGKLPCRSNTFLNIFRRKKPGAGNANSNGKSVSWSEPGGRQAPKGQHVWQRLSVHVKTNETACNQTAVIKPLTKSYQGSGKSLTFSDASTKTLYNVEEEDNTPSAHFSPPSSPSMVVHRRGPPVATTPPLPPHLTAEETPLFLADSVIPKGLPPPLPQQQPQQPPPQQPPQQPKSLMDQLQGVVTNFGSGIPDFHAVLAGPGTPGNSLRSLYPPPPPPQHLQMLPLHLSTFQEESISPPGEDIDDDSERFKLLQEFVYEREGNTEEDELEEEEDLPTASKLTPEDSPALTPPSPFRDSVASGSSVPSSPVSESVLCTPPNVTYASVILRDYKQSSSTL
Metabotropic glutamate receptor 8 (Rattus norvegicus), sequence (P70579 whole entry): as the sequence (P70579 whole entry) above
Metabotropic glutamate receptor 1 (Rattus norvegicus), sequence (P23385 19-1199 limits assumed): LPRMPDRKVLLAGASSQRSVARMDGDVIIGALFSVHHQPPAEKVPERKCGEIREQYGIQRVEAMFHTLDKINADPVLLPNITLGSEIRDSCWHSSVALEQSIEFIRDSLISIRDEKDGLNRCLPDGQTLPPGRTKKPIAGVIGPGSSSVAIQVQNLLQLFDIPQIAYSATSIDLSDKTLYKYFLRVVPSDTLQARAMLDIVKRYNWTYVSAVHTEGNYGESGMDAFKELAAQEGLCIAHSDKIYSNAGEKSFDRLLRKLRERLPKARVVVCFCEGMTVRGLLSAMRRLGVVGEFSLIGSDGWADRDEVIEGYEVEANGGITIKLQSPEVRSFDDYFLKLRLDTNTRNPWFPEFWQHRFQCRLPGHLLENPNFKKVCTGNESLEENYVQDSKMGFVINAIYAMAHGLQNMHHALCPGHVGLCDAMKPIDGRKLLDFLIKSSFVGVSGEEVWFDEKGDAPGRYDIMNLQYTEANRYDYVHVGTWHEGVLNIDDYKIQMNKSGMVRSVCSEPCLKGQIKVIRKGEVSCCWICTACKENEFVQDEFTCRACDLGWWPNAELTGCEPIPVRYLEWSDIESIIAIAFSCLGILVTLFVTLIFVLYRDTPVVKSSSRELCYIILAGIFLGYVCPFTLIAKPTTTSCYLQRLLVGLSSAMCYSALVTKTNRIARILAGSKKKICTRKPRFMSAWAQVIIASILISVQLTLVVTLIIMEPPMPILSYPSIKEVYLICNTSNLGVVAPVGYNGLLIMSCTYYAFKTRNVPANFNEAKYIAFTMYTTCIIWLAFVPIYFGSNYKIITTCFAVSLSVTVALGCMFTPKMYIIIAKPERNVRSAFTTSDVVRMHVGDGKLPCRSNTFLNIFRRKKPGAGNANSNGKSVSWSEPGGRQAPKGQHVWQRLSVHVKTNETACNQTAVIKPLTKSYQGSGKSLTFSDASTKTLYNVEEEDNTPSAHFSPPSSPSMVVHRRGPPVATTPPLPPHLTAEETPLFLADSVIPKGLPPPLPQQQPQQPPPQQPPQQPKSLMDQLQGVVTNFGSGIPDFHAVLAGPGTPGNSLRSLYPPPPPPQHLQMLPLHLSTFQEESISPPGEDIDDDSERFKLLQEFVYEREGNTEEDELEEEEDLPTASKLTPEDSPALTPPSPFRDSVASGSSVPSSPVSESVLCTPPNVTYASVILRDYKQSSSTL
Metabotropic glutamate receptor 2, sequence (P31421 whole entry): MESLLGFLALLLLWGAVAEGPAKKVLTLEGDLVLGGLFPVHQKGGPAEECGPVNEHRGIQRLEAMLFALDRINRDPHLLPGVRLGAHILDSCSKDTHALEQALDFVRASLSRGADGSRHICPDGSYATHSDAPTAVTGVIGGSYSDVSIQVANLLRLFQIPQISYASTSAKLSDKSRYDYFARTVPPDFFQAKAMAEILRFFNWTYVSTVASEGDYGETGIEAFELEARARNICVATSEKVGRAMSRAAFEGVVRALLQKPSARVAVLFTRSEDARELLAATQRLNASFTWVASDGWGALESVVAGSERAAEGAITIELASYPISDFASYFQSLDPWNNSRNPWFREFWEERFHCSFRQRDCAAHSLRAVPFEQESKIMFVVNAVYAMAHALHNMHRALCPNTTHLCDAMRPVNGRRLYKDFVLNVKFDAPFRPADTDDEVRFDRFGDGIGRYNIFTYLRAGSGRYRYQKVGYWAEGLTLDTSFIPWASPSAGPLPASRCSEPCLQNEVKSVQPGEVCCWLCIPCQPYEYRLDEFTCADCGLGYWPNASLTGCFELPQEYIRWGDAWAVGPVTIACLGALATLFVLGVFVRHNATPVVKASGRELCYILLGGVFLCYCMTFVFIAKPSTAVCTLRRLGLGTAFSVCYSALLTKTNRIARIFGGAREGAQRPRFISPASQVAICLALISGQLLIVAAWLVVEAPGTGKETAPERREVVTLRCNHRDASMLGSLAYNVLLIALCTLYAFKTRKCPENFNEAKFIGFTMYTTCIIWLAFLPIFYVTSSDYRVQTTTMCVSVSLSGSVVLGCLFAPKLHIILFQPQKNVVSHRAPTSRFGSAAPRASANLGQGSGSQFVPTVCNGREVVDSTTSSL

Regarding `N[C@@H](C[C@H](O)C(=O)O)C(=O)O`, the pEC50 (as a rule, the EC50 on a negative log10 scale, so that one unit is a factor of ten) in assay [1] was 3.86; in assay [3], 4.28; in assay [5] it was 4.96. The Rmax is 95% in assay [2], 94% in assay [4] and 60% in assay [6].
With `N[C@@H](CCC(=O)O)C(=O)O` [GLUTAMIC ACID], in assay [7], the pEC50 is 5.10.
In the case of `N[C@@H](C[C@@H](O)C(=O)O)C(=O)O`, the negative logarithm of the EC50 (pEC50) in assay [1] is 3.79; in assay [3], 4.16; in assay [5], 3.43. For the same molecule, the Rmax in assay [8] is 52%; in assay [2], 70%; in assay [4], 54%.
